Patent US20220339122A1, “METHODS FOR THE TREATMENT OF DISEASES ASSOCIATED WITH DYSREGULATED ACTIVATION AND RECRUITMENT OF NEUTROPHILS” (Chang Gung University, priority 2021, published 2022)

Legend:
Assay type in all cases: biochemical
Conditions in all cases: 1-10 μM bletinib or 0.1-3 μM PP2; 125 μM ATP; concentration-dependent
[1] = molecular target: Src (Homo sapiens, UniProt P12931); test: Cell-free ADP-Glo kinase assay, Src
Experimental: (§1) The kinase activity of SFKs was assessed using an ADP-Glo kinase assay kit (Promega, Fitchburg, USA) according to manufacturer instructions. […] The ADP-Glo reagent was used to end the kinase reaction and remove the remnant ATP; next, the kinase, which converted ADP to ATP, detection reagent was added and incubated for 30 min. Luciferin/luciferase luminescence was determined on an Infinite 200 Pro (Tecan, Switzerland).

[2] = molecular target: Fgr (Homo sapiens, UniProt P09769); test: Cell-free ADP-Glo kinase assay, Fgr
Chain of Fgr (P09769 whole entry): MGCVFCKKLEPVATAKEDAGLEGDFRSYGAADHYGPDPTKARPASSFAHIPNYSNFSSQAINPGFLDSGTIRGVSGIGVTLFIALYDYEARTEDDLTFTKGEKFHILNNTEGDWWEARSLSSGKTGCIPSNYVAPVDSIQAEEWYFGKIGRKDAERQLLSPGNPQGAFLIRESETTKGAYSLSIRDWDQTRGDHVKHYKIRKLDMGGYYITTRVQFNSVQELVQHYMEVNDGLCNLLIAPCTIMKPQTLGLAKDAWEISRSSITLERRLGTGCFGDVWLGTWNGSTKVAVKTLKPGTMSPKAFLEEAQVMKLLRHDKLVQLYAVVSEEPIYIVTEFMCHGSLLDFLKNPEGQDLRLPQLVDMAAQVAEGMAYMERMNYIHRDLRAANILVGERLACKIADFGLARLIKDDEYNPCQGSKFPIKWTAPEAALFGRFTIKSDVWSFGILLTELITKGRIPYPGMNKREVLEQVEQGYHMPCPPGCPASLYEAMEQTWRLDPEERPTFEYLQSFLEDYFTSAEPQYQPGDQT
Experimental: as §1

[3] = molecular target: Lyn (Homo sapiens, UniProt P07948); test: Cell-free ADP-Glo kinase assay, Lyn
Chain of Lyn (P07948 whole entry): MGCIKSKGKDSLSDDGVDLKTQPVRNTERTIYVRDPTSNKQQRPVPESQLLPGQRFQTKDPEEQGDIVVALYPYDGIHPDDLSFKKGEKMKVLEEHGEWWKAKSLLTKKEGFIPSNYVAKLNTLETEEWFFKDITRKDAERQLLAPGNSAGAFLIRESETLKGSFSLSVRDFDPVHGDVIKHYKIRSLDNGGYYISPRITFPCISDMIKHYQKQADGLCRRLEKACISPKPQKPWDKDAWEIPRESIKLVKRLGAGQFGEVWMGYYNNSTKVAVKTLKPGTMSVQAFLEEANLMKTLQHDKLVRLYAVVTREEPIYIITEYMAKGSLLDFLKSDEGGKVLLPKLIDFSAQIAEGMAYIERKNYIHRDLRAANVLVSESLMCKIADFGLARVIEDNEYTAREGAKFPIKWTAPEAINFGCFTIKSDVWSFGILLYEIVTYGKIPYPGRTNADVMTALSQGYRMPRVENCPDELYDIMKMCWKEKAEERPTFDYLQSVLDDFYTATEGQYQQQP
Experimental: as §1

Chain of Src (P12931 whole entry): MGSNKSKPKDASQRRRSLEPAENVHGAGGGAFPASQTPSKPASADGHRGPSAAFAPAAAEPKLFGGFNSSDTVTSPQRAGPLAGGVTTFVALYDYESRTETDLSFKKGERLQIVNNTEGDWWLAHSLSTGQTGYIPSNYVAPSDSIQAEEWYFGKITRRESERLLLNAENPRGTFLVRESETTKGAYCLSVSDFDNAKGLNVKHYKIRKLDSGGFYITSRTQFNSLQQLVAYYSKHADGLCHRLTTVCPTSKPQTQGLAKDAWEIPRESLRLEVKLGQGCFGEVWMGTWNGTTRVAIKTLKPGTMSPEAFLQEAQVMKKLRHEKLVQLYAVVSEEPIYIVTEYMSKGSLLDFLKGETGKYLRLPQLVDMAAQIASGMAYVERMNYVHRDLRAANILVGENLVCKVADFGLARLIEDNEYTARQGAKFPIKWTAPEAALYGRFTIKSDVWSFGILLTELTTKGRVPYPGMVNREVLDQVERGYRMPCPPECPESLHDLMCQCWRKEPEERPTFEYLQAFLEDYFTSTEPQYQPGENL

kinase activity of Src [1]: inhibited
kinase activity of Fgr [2]: inhibited
kinase activity of Lyn [3]: inhibited
SMILES: CC(C)(C)n1nc(-c2ccc(Cl)cc2)c2c(N)ncnc21 [PP2, reference compound]
